Values quoted from earlier work in patent US10925856B2, “Methods and compositions involving bucindolol for the treatment of atrial fibrillation” (priority 2018, dated 2021).
Like-named read-outs stand apart in the source and are kept apart here.

Tested on: patients with HF and/or AF
Settings: persistent AF recently converted to SR, cited from earlier work

| Compound | AF recurrence rate (Katritsis et al) [%] | AF recurrence rate (Plewan et al) [%] |
| --- | --- | --- |
| CC(C)NCC(O)COc1ccc(COCCOC(C)C)cc1 (stereo not shown) [bisoprolol] | 46 | 42 |
| COc1ccccc1OCCNCC(O)COc1cccc2[nH]c3ccccc3c12 (stereo not shown) [carvedilol] | 32 | – |
| CC(C)NCC(O)c1ccc(NS(C)(=O)=O)cc1 (stereo not shown) [sotalol] | – | 41 |
